Assay results reported in US8871934B2, “Fluorene compound and pharmaceutical use thereof” (Japan Tobacco Inc., priority 2008, dated 2014).
Where two headings read alike, the source gives them in different places.

Biological target: human PDHK2 (hPDHK2) (Homo sapiens (Human), UniProt Q15119)
Test: Inhibitory action of PDHK activity in vitro (kinase reaction, residual PDH activity measured)
Format: biochemical
Procedure: In the case of human PDHK2 (hPDHK2, Genbank Accession No. NM_002611), modified hPDHK2 cDNA wherein FLAG-Tag sequence is added to the N terminal by a polymerase linkage reaction was prepared based on hPDHK2 cDNA clone (pReceiver-M01/PDK2-GeneCopoeia), and cloned into a vector (pET17b-Novagen). The recombinant construct was transformed into Escherichia coli (DH5α-TOYOBO). The recombinant clones were identified, plasmid DNA was isolated and subjected to the DNA sequence analysis. One clone which had the expected nucleic acid sequence was selected for expression work.
During the assay, the hPDHK2 enzyme concentration was set to the minimal concentration at which PDH is inhibited the most.
0.05 U/mL PDH (porcine heart PDH complex, Sigma P7032) and 1.6 μg/mL hPDHK2 were mixed in a buffer (50 mmol/L 3-morpholinopropanesulfonic acid (pH 7.0), 20 mmol/L dipotassium hydrogen phosphate, 60 mmol/L potassium chloride, 2 mmol/L magnesium chloride, 0.4 mmol/L EDTA, and 0.2% Pluronic F-68, 2 mmol/L dithiothreitol), the mixture was incubated at 4° C. overnight to give PDH/hPDHK2 complex. The test compound was diluted with dimethyl sulfoxide (DMSO). PDH/hPDHK2 complex (20 μL), test compound (1.5 μL) and 3.53 μmol/L ATP (diluted with buffer, 8.5 μL) were added to a half area 96 well UV-transparent microplate (Corning 3679), and PDHK reaction was performed at room temperature for 45 min. Instead of the test compound, DMSO (1.5 μL) was added to a control well. DMSO (1.5 μL) was added instead of the test compound to a blank well for the measurement of the maximum rate of PDH reaction, and hPDHK2 was not added. Than, 10 μL of substrates (5 mmol/L sodium pyruvate, 5 mmol/L Coenzyme A, 12 mmol/L NAD, and 5 mmol/L thiamine pyrophosphate, diluted with buffer) was added. The mixture was incubated at room temperature for 90 min, and the residual PDH activity was measured. The absorbance at 340 nm before and after PDH reaction was measured on a microplate reader to detect NADH produced by the PDH reaction. The PDHK inhibitory rate (%) of the test compound was calculated from the formula [{(PDH activity of test compound—PDH activity of control)/PDH activity of blank—PDH activity of control)}×100]. The IC50 value was calculated from the concentrations of the test compound at two points enclosing 50% inhibition of the PDHK activity.

[1] = PDHK inhibitory activity, class symbol of IC50
[2] = read-out: PDHK inhibitory activity IC50
[3] = PDHK inhibitory activity (class symbol)

IC50 (PDHK inhibitory activity IC50 (μmol/L)) | SMILES | IC50 [1] | IC50 [2] | IC50 [3] | IC50 (read-out: PDHK inhibitory activity, class symbol of IC50)
– | COC(=O)COc1cc(Cl)c2c(c1)C(O)(C(F)(F)F)c1ccccc1-2 (single isomer, unassigned) [compound 481, (4-chloro-9-hydroxy-9-trifluoromethyl-9H-fluoren-2-yloxy)-acetic acid methyl ester] | 0.1 to 1 µM | 0.251 µM | – | –
– | OCc1ccc(-c2ccc3c(c2)C(O)(C(F)(F)F)c2ccccc2-3)cc1 (stereo not shown) [compound 194] | 0.1 to 1 µM | 0.368 µM | – | –
– | COC(=O)c1cccc2c1-c1ccc(F)cc1C2(O)C(F)(F)F (stereo not shown) [compound 219] | > 1 µM | > 10 µM | – | –
– | CC(C)=Cc1cc(-c2cnn(C(CO)CO)c2)c2c(c1)C(O)(C(F)(F)F)c1ccccc1-2 (single isomer, unassigned) [compound 664] | – | 0.015 µM | < 0.1 µM | –
– | CCc1ccc2c(c1)C(O)(C(F)(F)F)c1ccccc1-2 (stereo not shown) [compound 39] | > 1 µM | 4.52 µM | – | –
– | O=C(c1ccc2c(c1)C(O)(C(F)(F)F)c1ccccc1-2)N1CCCCC1 (stereo not shown) [compound 52] | > 1 µM | 4.01 µM | – | –
– | Cc1cc(-c2cnn(C(C)(C)CC(=O)O)c2)c2c(c1)C(O)(C(F)(F)F)c1ccccc1-2 (single isomer, unassigned) [compound 576] | < 0.1 µM | 0.03 µM | – | –
– | OC1(C(F)(F)F)c2ccccc2-c2c(Cl)cc(F)cc21 (single isomer, unassigned; (+)) [Compound No. 526, (+)-4-chloro-2-fluoro-9-trifluoromethyl-9H-fluoren-9-ol] | – | 0.397 µM | – | 0.1 to 1 µM
– | CC(C)NC(=O)c1ccc2c(c1)-c1ccccc1C2(O)C(F)(F)F (stereo not shown) [compound 73] | > 1 µM | 4.81 µM | – | –
– | CNC(=O)COc1cc(-c2cnn(C)c2)c2c(c1)C(O)(C(F)(F)F)c1ccccc1-2 (stereo not shown) [compound 442] | < 0.1 µM | 0.04 µM | – | –
– | CN(C)C(=O)c1cccc(-c2ccc3c(c2)C(O)(C(F)(F)F)c2ccccc2-3)c1 (stereo not shown) [compound 158] | 0.1 to 1 µM | 0.221 µM | – | –
– | CC(=O)N(C)C(C)COc1ccc2c(c1)C(O)(C(F)(F)F)c1ccccc1-2 (stereo not shown) [compound 381] | 0.1 to 1 µM | 0.495 µM | – | –
– | OC1(C(F)(F)F)c2ccccc2-c2ccc(-c3ccccc3Cl)cc21 (stereo not shown) [compound 150] | > 1 µM | 6.84 µM | – | –
– | O=C(O)CCCOc1cc(Br)c2c(c1)C(O)(C(F)(F)F)c1ccccc1-2 (stereo not shown) [compound 404] | 0.1 to 1 µM | 0.195 µM | – | –
– | CNC(=O)Cn1cc(-c2cc(Cl)cc3c2-c2ccccc2C3(O)C(F)(F)F)cn1 (stereo not shown) [compound 513] | < 0.1 µM | 0.032 µM | – | –
– | COc1ccc2c(c1)C(O)(C(F)(F)F)c1ccccc1-2 (stereo not shown) [compound 37] | > 1 µM | 3.96 µM | – | –
– | OC[C@H](O)Cn1cc(-c2cc(F)cc3c2-c2ccccc2C3(O)C(F)(F)F)cn1 (single isomer, unassigned) [compound 566] | < 0.1 µM | 0.021 µM | – | –
– | CC1CCCN1C(=O)c1ccc2c(c1)C(O)(C(F)(F)F)c1ccccc1-2 (stereo not shown) [compound 77] | > 1 µM | 2.5 µM | – | –
– | NC(=O)Cn1cc(-c2cccc3c2-c2ccccc2C3(O)C(F)(F)F)cn1 (stereo not shown) [compound 493] | < 0.1 µM | 0.039 µM | – | –
– | CCn1cc(-c2cc(C(C)=O)c3c(c2)C(O)(C(F)(F)F)c2ccccc2-3)cn1 (stereo not shown) [compound 587] | < 0.1 µM | 0.021 µM | – | –
– | CC(C)c1ccc2c(c1)C(O)(C(F)(F)F)c1ccccc1-2 (stereo not shown) [compound 71] | > 1 µM | 10.2 µM | – | –
– | CCN(C)C(=O)c1ccc2c(c1)C(O)(C(F)(F)F)c1ccccc1-2 (stereo not shown) [compound 51] | > 1 µM | 2.59 µM | – | –
– | CC(C)(C)Cn1cc(-c2cc(C(N)=O)c3c(c2)C(O)(C(F)(F)F)c2ccccc2-3)cn1 (stereo not shown) [compound 646] | – | 0.04 µM | < 0.1 µM | –
– | NC(=O)COc1cc(Cl)c2c(c1)C(O)(C(F)(F)F)c1ccccc1-2 (stereo not shown) [compound 385] | 0.1 to 1 µM | 0.234 µM | – | –

IC50 (PDHK inhibitory activity IC50 (μmol/L)) | SMILES | IC50 [1] | IC50 [2] | IC50 [3] | IC50 (read-out: PDHK inhibitory activity, class symbol of IC50)
– | OC1(C(F)(F)F)c2ccccc2-c2c(Cl)cc(F)cc21 (stereo not shown) [compound 525] | 0.1 to 1 µM | 0.677 µM | – | –
– | CN(C)C(=O)CCOc1ccc2c(c1)C(O)(C(F)(F)F)c1ccccc1-2 (stereo not shown) [compound 303] | 0.1 to 1 µM | 0.755 µM | – | –
0.109 µM | O=C(O)Cn1cc(-c2cc(F)cc3c2-c2ccccc2[C@]3(O)C(F)(F)F)cn1 (stereo in doubt) [compound 551] | 0.1 to 1 µM | – | – | –
– | OC1(C(F)(F)F)c2ccccc2-c2ccc(-c3ccccc3F)cc21 (stereo not shown) [compound 149] | > 1 µM | 1.22 µM | – | –
– | O=C(c1cc(CO)c2c(c1)C(O)(C(F)(F)F)c1ccccc1-2)N1CCCC1 (stereo not shown) [compound 572] | 0.1 to 1 µM | 0.109 µM | – | –
– | NC(=O)COc1cc(-c2cn[nH]c2)c2c(c1)C(O)(C(F)(F)F)c1ccccc1-2 (stereo not shown) [compound 503] | < 0.1 µM | 0.045 µM | – | –
– | CN(C)C(=O)c1ccc(-c2ccc3c(c2)C(O)(C(F)(F)F)c2ccccc2-3)cc1Cl (stereo not shown) [compound 241] | < 0.1 µM | 0.098 µM | – | –
– | CC(C)Cc1cc(-c2cnn(CCO)c2)c2c(c1)C(O)(C(F)(F)F)c1ccccc1-2 (stereo not shown) [compound 631] | – | 0.062 µM | < 0.1 µM | –
– | O=C(c1cc(-c2cccnc2)c2c(c1)C(O)(C(F)(F)F)c1ccccc1-2)N1CCC1 (stereo not shown) [compound 242] | < 0.1 µM | 0.086 µM | – | –
– | O=C1NCCN1CCOc1ccc2c(c1)C(O)(C(F)(F)F)c1ccccc1-2 (stereo not shown) [compound 469] | 0.1 to 1 µM | 0.193 µM | – | –
– | OC1(C(F)(F)F)c2ccccc2-c2ccc(-c3ccccn3)cc21 (stereo not shown) [compound 112] | > 1 µM | 1.23 µM | – | –
– | COC(=O)C1CCCN1C(=O)c1ccc2c(c1)C(O)(C(F)(F)F)c1ccccc1-2 (stereo not shown) [compound 167] | > 1 µM | 1.95 µM | – | –
– | CCOc1ccc2c(c1)C(O)(C(F)(F)F)c1ccccc1-2 (stereo not shown) [compound 89] | > 1 µM | 2.15 µM | – | –
– | CS(=O)(=O)c1cccc2c1-c1ccccc1C2(O)C(F)(F)F (stereo not shown) [compound 143] | > 1 µM | > 10 µM | – | –
– | CC(C)CCOc1ccc2c(c1)C(O)(C(F)(F)F)c1ccccc1-2 (stereo not shown) [compound 276] | > 1 µM | 1.01 µM | – | –
– | OC1(C(F)(F)F)c2ccccc2-c2ccc(OCC3CCC3)cc21 (stereo not shown) [compound 255] | > 1 µM | 1.08 µM | – | –
– | Cn1cc(-c2cc(C(N)=O)c3c(c2)C(O)(C(F)(F)F)c2ccccc2-3)cn1 (stereo not shown) [compound 518] | < 0.1 µM | 0.054 µM | – | –
– | CC(C)(Cn1cc(-c2cc(F)cc3c2-c2ccccc2C3(O)C(F)(F)F)cn1)C(=O)O (single isomer, unassigned) [compound 607] | – | 0.045 µM | < 0.1 µM | –
– | CC(C)(C)OC(=O)N1CCN(c2ccc3c(c2)C(O)(C(F)(F)F)c2ccccc2-3)CC1 (stereo not shown) [compound 163] | 0.1 to 1 µM | 0.232 µM | – | –
– | CNCCOc1ccc2c(c1)C(O)(C(F)(F)F)c1ccccc1-2 (stereo not shown) [compound 321] | > 1 µM | 5.38 µM | – | –
– | OC1(C(F)(F)F)c2ccccc2-c2ccc(-c3ccccc3)cc21 (stereo not shown) [compound 97] | 0.1 to 1 µM | 0.849 µM | – | –
– | CC[Si](CC)(CC)CCc1cc(C(N)=O)c2c(c1)C(O)(C(F)(F)F)c1ccccc1-2 (stereo not shown) [compound 634] | – | 0.1 µM | 0.1 to 1 µM | –
– | CC(=O)N(CCO)CCOc1ccc2c(c1)C(O)(C(F)(F)F)c1ccccc1-2 (stereo not shown) [compound 379] | 0.1 to 1 µM | 0.351 µM | – | –
